The values that follow come from US20240383882A1 (Ecstasy LLC, priority 2020, published 2024).

Molecules are shown by their SMILES. Structures can show the parent of a compound that is named as a salt.

The first experiment relates to male C57BL/6 mice. The experiment can be described thus: 55° C. warm-water tail-flick test (antinociception). In kind it is in vivo. The settings on record: Mus musculus, sc, 0.5 h, compounds of Table I; s.c.; 30 min; 55° C. water; configuration tested as in Table II; read-out: ED50 (mg/kg) at 30 min on C57BL/6 mice in Warm-water Tail-flick Test. Put shortly:
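Subcutaneous dosing, then tail immersion in 55° C water at 30–120 min; latency normalized as 100×(test−control)/(20−control), using a 20 s cutoff, after excluding mice not responding within 2 s at baseline. Values expressed as ED50 (mg/kg).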
Take `CCOCC1(CCn2c(=O)[nH]c3cc(F)c(F)cc32)CCN(C(C)(C)c2ccc(C)nc2)C1` (single isomer, unassigned) [Compound 99]: the ED50 is not above 30 mg/kg.

On to `CCOCC1(CCn2c(=O)n(CC(C)C)c3cc(F)c(F)cc32)CCN(C(C)(C)c2ccc(C)nc2)C1` (stereo not shown) [Compound 100], for which the ED50 was not above 30 mg/kg.

Consider `Cc1ccc(C(C)(C)N2CCC(CCCc3cccs3)(C3CCCO3)C2)cn1` (single isomer, unassigned) [Compound 19], for which the ED50 is not above 30 mg/kg. Still for that read-out and setting: next, `CCOC(c1ccccn1)C1(CCc2cccs2)CCN(C(C)(C)c2ccc(C)nc2)C1` (single isomer, unassigned) [Compound 86, 5-(2-((S or R)-3-((R& S)-ethoxy(pyridin-2-yl)methyl)-3-(2-(thiophen-2-yl)ethyl)pyrrolidin-1-yl)propan-2-yl)-2-methylpyridine citrate]: not above 30 mg/kg; `Cc1ccc(C(C)(C)N2CCC(CCc3ccc(F)s3)(CNS(C)(=O)=O)C2)cn1` (single isomer, unassigned) [Compound 313]: not above 30 mg/kg; `CCOCC1(CCc2ccc(F)cc2)CCN(Cc2ccccc2)C1` (stereo in doubt) [Compound 4, (S)-1-benzyl-3-(ethoxymethyl)-3-(4-fluorophenethyl) pyrrolidine]: not above 30 mg/kg.

The same experiment, now with this note: Mus musculus, sc, 0.5 h, compounds of Table III; s.c.; 30 min; 55° C. water; configuration tested as in Table IV; read-out: ED50 (mg/kg) at 30 min on C57BL/6 mice in Warm-water Tail-flick Test (same as Table II).
Take `CCOCC1(CCc2ccc(F)cc2)CCN(Cc2ccccc2)C1` (stereo in doubt) [Compound 4, (S)-1-benzyl-3-(ethoxymethyl)-3-(4-fluorophenethyl) pyrrolidine]: the ED50 is more than 50 mg/kg.

Still in this experiment, the particulars now being: Mus musculus, sc, 0.5 h, compounds of Table V; s.c.; 30 min; 55° C. water; read-out: ED50 (mg/kg) at 30 min on C57BL/6 mice in Warm-water Tail-flick Test (same conditions as Table II).
For `CCOCC1(CCc2ccccc2)CCN(C(C)(C)c2ccc(-c3cn[nH]n3)cc2)CC1` [Compound 5], the ED50 was not above 30 mg/kg. The same measure, in the same setting: next, `CCOCC1(CCc2ccc(F)cc2)CCN(Cc2ccccc2)C1` (stereo in doubt) [Compound 4, (S)-1-benzyl-3-(ethoxymethyl)-3-(4-fluorophenethyl) pyrrolidine]: not above 30 mg/kg.

Staying with this experiment, now noted: Mus musculus; half maximal effective dose in mice; using one of: warm water tail-flick test, spared nerve injury, chronic constriction injury, or Complete Freund's adjuvant induced inflammatory pain (not stated which per compound); read-out: Biological Activity (ED50).
On to `CCOC(C(F)(F)F)[C@]1(CCc2ccc(C#N)s2)CCN(C(C)(C)c2ccccn2)C1` (single isomer, unassigned) [Compound 156, 5-(2-((R)-3-((R or S)-1-ethoxy-2,2,2-trifluoroethyl)-1-(2-(pyridin-2-yl)propan-2-yl)pyrrolidin-3-yl)ethyl)thiophene-2-carbonitrile], for which the ED50 is not above 30 mg/kg.

For `CC(C)(c1ccc(S(C)(=O)=O)cc1)N1CC[C@@](CCc2ccc(F)cc2)(C(O)C(F)(F)F)C1` (single isomer, unassigned) [Compound 50], the ED50 was more than 50 mg/kg.

Regarding `Cc1ccc(C(C)(C)N2CC[C@@](CCc3ccc(C#N)cc3)(COCc3ccccc3)C2)cn1` [Compound 17, (R)-4-(2-(3-((benzyloxy)methyl)-1-(2-(6-methylpyridin-3-yl)propan-2-yl)pyrrolidin-3-yl)ethyl) benzonitrile], the ED50 is not above 30 mg/kg.

For the compound `CC1(C)COC1[C@]1(CCc2ccc(C#N)cc2)CCN(Cc2ccc(Cl)cc2)C1` (single isomer, unassigned) [Compound 195, 4-(2-((R)-1-(4-chlorobenzyl)-3-((R or S)-3,3-dimethyloxetan-2-yl)pyrrolidin-3-yl)ethyl) benzonitrile], the ED50 is not above 30 mg/kg. Still for that read-out and setting: next, `CC(C)(c1ccccn1)N1CC[C@](C#N)(CCc2ccc3nonc3c2)C1` [Compound 178, (R)-3-(2-(benzo[c][1,2,5]oxadiazol-5-yl)ethyl)-1-(2-(pyridin-2-yl)propan-2-yl)pyrrolidine-3-carbonitrile]: more than 50 mg/kg. Still for that read-out and setting: next, `CC(O)[C@@]1(CCc2ccc(C#N)cc2)CCN(C(c2ccc(F)cc2)c2cccnc2)C1` (single isomer, unassigned) [Compound 58]: more than 50 mg/kg; `CC(C)(c1ccccn1)N1CC[C@](CN)(CCc2ccc(C#N)cc2)C1` [Compound 115, (S)-4-(2-(3-(aminomethyl)-1-(2-(pyridin-2-yl)propan-2-yl)pyrrolidin-3-yl)ethyl) benzonitrile]: more than 50 mg/kg.

As to `Cc1ccc(C(C)(C)N2CC[C@](CO)(CCc3ccc(C#N)cc3)C2)cn1` [Compound 18, (R)-4-(2-(3-(hydroxymethyl)-1-(2-(6-methylpyridin-3-yl)propan-2-yl)pyrrolidin-3-yl)ethyl) benzonitrile], the ED50 was not above 30 mg/kg. On the same count and under the same terms, the result for `CC(C)(c1ccccn1)N1CC[C@@](CCc2ccc3nonc3c2)(COCc2ccccc2)C1` [Compound 163, (R)-5-(2-(3-((benzyloxy)methyl)-1-(2-(pyridin-2-yl)propan-2-yl)pyrrolidin-3-yl)ethyl)benzo[c] [1,2,5]oxadiazole] reads more than 50 mg/kg; that for `COc1cccc(C(C)(C)N2CC[C@@](CCc3ccc(C#N)cc3)(C(N)=O)C2)n1` [Compound 159, (R)-3-(4-cyanophenethyl)-1-(2-(6-methoxypyridin-2-yl)propan-2-yl)pyrrolidine-3-carboxamide], not above 30 mg/kg. The same measure, in the same setting: the result for `CCOC[C@@]1(CCc2ccc(S(C)(=O)=O)cc2)CCN(C(C)(C)c2ccc(Cl)cc2)C1` [Compound 51] reads not above 30 mg/kg; that for `CC(C)(c1ccccc1)N1CC[C@](CCc2ccc(S(C)(=O)=O)cc2)([C@@H](O)C(F)(F)F)C1` [Compound 212, (R)-2,2,2-trifluoro-1-((S)-3-(4-(methylsulfonyl)phenethyl)-1-(2-phenylpropan-2-yl)pyrrolidin-3-yl)ethan-1-ol], not above 30 mg/kg; that for `CC(C)(c1ccccn1)N1CC[C@](COCc2ccc(C#N)cc2)(C2CCCO2)C1` (single isomer, unassigned) [Compound 74], more than 50 mg/kg. Still for that read-out and setting: next, `CC(C)(c1ccccn1)N1CC[C@@](/C=C/c2ccc(C#N)cc2)(c2nn[nH]n2)C1` [Compound 185, (S,E)-4-(2-(1-(2-(pyridin-2-yl)propan-2-yl)-3-(2H-tetrazol-5-yl)pyrrolidin-3-yl)vinyl) benzonitrile]: more than 50 mg/kg. Regarding `CC1(C)COC1[C@]1(CCc2ccc(C#N)cc2)CCN(Cc2ncc(Cl)cn2)C1` (single isomer, unassigned) [Compound 210, 4-(2-((R)-1-((5-chloropyrimidin-2-yl)methyl)-3-((R or S)-3,3-dimethyloxetan-2-yl)pyrrolidin-3-yl)ethyl)benzonitrile], the ED50 is more than 50 mg/kg.

For the compound `Cc1ccc(C(C)(C)N2CC[C@@](CCc3ccc(C#N)cc3)(CS(C)(=O)=O)C2)cn1` [Compound 19, (R)-4-(2-(1-(2-(6-methylpyridin-3-yl)propan-2-yl)-3-((methylsulfonyl)methyl)pyrrolidin-3-yl)ethyl)benzonitrile], the ED50 was not above 30 mg/kg. The same measure, in the same setting: next, `CC(C)(c1ccccn1)N1CC[C@](C#N)(CCc2ccc(F)c(F)c2)C1` [Compound 175, (R)-3-(3,4-difluorophenethyl)-1-(2-(pyridin-2-yl)propan-2-yl)pyrrolidine-3-carbonitrile]: more than 50 mg/kg; `CC(C)(c1ccccn1)N1CC[C@@](CCc2ccc3ccoc3c2)(C(O)C(F)(F)F)C1` (single isomer, unassigned) [Compound 172, (R or S)-1-((R)-3-(2-(benzofuran-6-yl)ethyl)-1-(2-(pyridin-2-yl)propan-2-yl)pyrrolidin-3-yl)-2,2,2-trifluoroethan-1-ol]: more than 50 mg/kg. As to `CC(C)(c1ccccn1)N1CC[C@](CCc2ccc(C#N)cc2)(c2ncc[nH]2)C1` [Compound 225, (S)-4-(2-(3-(1H-imidazol-2-yl)-1-(2-(pyridin-2-yl)propan-2-yl)pyrrolidin-3-yl)ethyl) benzonitrile], the ED50 is more than 50 mg/kg. Same read-out and setting: the result for `CC(C)(c1ccccn1)N1CC[C@](CO)(CCc2ccc(C#N)cn2)C1` [Compound 114, (R)-6-(2-(3-(hydroxymethyl)-1-(2-(pyridin-2-yl)propan-2-yl)pyrrolidin-3-yl)ethyl) nicotinonitrile] reads more than 50 mg/kg; that for `CCOCC1(CCc2ccc(F)cc2)CCN(Cc2ccccc2)C1` (stereo in doubt) [Compound 4, (S)-1-benzyl-3-(ethoxymethyl)-3-(4-fluorophenethyl) pyrrolidine], more than 50 mg/kg; that for `COC[C@]1(CCc2ccc(C#N)cc2)CCN(C(C)(C)c2ccccn2)C1` [Compound 59], more than 50 mg/kg.

Take `CCOC(C(F)(F)F)(C(F)(F)F)[C@]1(COCc2ccccc2)CCN(C(C)(C)c2ccns2)C1` [Compound 23, (R)-5-(2-(3-((benzyloxy)methyl)-3-(2-ethoxy-1,1,1,3,3,3-hexafluoropropan-2-yl)pyrrolidin-1-yl)propan-2-yl)isothiazole]: the ED50 is more than 50 mg/kg. The same measure, in the same setting: the result for `CCOC[C@]1(CCc2ccc(F)cc2)CCN(Cc2cccnc2C(N)=O)C1` [Compound 5] reads more than 50 mg/kg; that for `CCOC[C@@]1(CCc2ccc(S(C)(=O)=O)cc2)CCN(C(C)(C)c2ccccc2)C1` [Compound 200, (S)-3-(ethoxymethyl)-3-(4-(methylsulfonyl)phenethyl)-1-(2-phenylpropan-2-yl)pyrrolidine], not above 30 mg/kg.

On to `CC1(C)COC1[C@]1(CCc2ccc(C#N)cc2)CCN(Cc2ccc(C#N)cc2)C1` (single isomer, unassigned) [Compound 204, 4-(2-((R)-1-(4-cyanobenzyl)-3-((R or S)-3,3-dimethyloxetan-2-yl)pyrrolidin-3-yl)ethyl) benzonitrile], for which the ED50 is not above 30 mg/kg. On the same count and under the same terms, next, `CC(C)(c1ccccn1)N1CC[C@](CO)(CCc2ccc(C#N)c(F)c2)C1` [Compound 110, (R)-2-fluoro-4-(2-(3-(hydroxymethyl)-1-(2-(pyridin-2-yl)propan-2-yl)pyrrolidin-3-yl)ethyl) benzonitrile]: not above 30 mg/kg.

The same experiment, now with this note: half maximal effective dose in mice; using one of: warm water tail-flick test, spared nerve injury, chronic constriction injury, or Complete Freund's adjuvant induced inflammatory pain (not stated which per compound).
As to `CC(C)(c1ccccn1)N1CC[C@@](CCc2ccc(C#N)s2)(C(O)C(F)(F)F)C1` (single isomer, unassigned) [Compound 153, 5-(2-((R)-1-(2-(pyridin-2-yl)propan-2-yl)-3-((R or S)-2,2,2-trifluoro-1-hydroxyethyl)pyrrolidin-3-yl)ethyl)thiophene-2-carbonitrile], the “Biological Activity (ED50)” value was “+ (+ indicates ED 50>50 mg/kg)”.
